The source of these data is US20040110821A1, “GAL3 receptor antagonists for the treatment of affective disorders” (priority 2002, published 2004).

“And” between values parts separate entries of the source, which are not always exact repeats. Identical values can stand only once. Marks after values point to notes of the source that are not given here.

In the test the test system is Male Sprague-Dawley rats. The experiment in a line: Rat Forced Swim Test (FST). It is filed as in vivo. Conditions: for overall profile in the Forced Swim Test (conclusion in words): rat, in vivo.
Where [1] appears, read: 3 mg/kg p.o., single administration 1 hr before 5 min test.
The mark [2] stands for this setting: 1 mg/kg p.o., single administration 1 hr before 5 min test.
[3] abbreviates: 10 mg/kg p.o., single administration 1 hr before 5 min test.
[4] abbreviates: 3 mg/kg p.o., single administration 1 hr before 5 min test, listed as EX22.
The mark [5] stands for this setting: 10 mg/kg p.o., single administration 1 hr before 5 min test, listed as EX22.
Setting [6] is: 30 mg/kg p.o., single administration 1 hr before 5 min test.
[7] abbreviates: 30 mg/kg p.o., single administration 1 hr before 5 min test, listed as EX22.
Setting [8] is: 3 mg/kg p.o., single administration 24 hours before the test.
The mark [9] stands for this setting: 5 mg/kg p.o., single administration 1 hr before 5 min test.
Where [10] appears, read: 10 mg/kg p.o., single administration 1 hr before 5 min test, listed as Fluox.
Where [11] appears, read: 10 mg/kg p.o., single administration 1 hr before 5 min test, listed as fluoxetine.
Where [12] appears, read: 10 mg/kg p.o., single administration 24 hours before the test.

For the compound `O=C1C(=Nc2cc(Cl)cc(Cl)c2)c2ccccc2N1c1ccccc1` [EX103], under setting [1], the Swimming was determined as 13.2 ± 1.9 counts.
`CN(C)c1cc(Nc2ccc(Cl)c(Cl)c2)nc(N2CCN(Cc3ccccc3)CC2)n1` [EX151]: under setting [2], the Climbing came out at 2.3 ± 0.6 counts, the Diving amounted to 0.2 ± 0.2 counts, the Immobility came out at 41 ± 2.0 counts and the Swimming is 16.8 ± 1.4^d counts. Under setting [1], the Climbing was found to be 2.4 ± 0.5 counts, the Diving is given as 0.3 ± 0.2 counts, the Immobility is reported as 38 ± 2.0^a counts and the Swimming is on record as 19.5 ± 1.5^e counts. For the same compound, under setting [3], the Climbing is given as 2.2 ± 0.5 counts, the Diving was found to be 0.3 ± 0.2 counts, the Immobility is given as 39 ± 1.8^b counts and the Swimming is 18.9 ± 1.5^e counts.
`Cc1ccc(Nc2cc(N3CCCCC3)nc(N(C)CCc3ccccc3)n2)cc1` [Example 22]: the “overall profile in the Forced Swim Test (conclusion in words)” value (shortened to “overall profile in the Forced Swim Test”) is given as “has antidepressant-like properties”. For the same compound, under setting [1], the Climbing came to 2.0 ± 0.6 counts, the Diving entry is given as “not significantly altered”, the Immobility came out at 50 ± 0.9 counts and the Swimming entry is “did not significant alter swimming behavior”. Under setting [4], this compound came in with a Diving of 0.4 ± 0.4 counts and a Swimming of 7.6 ± 0.5 counts. Besides, under setting [3], the Climbing came to 2.9 ± 0.5 counts, the Diving entry is listed as “not significantly altered”, the Immobility result is “significant decrease in immobility” and the Swimming result is given as “significant increase in swimming”. Under setting [5], the Diving was 0.4 ± 0.3 counts, the Immobility is reported as 41 ± 1.3^c counts and the Swimming is listed as 15.3 ± 0.8^g counts. Under setting [6], the Climbing entry is “significant increase in climbing”, the Diving entry is “not significantly altered”, the Immobility result is “significant decrease in immobility” and the Swimming entry is on record as “significantly greater increase in swimming behavior”. Besides, under setting [7], the Climbing is 5.2 ± 1.0^a counts, the Diving came to 0.0 ± 0.0 counts, the Immobility is 31 ± 2.8^b counts and the Swimming is on record as 23.2 ± 2.0^f counts.
For the compound `O=C1C(=Nc2ccc(C(F)(F)F)cc2)c2ccccc2N1c1ccccc1` [Example 95, 1-PHENYL-3-[[4-(TRIFLUOROMETHYL)PHENYL]IMINO]-1,3-DIHYDRO-2H-INDOL-2-ONE], the “overall profile in the Forced Swim Test” value is on record as “does not produce antidepressant-like actions in the forced swim test”. Moreover, under setting [1], the Climbing entry is “did not significantly alter swimming, climbing, immobility or diving behavior”; the Diving result is on record as “did not significantly alter swimming, climbing, immobility or diving behavior”; the Immobility entry is listed as “did not significantly alter swimming, climbing, immobility or diving behavior”; the Swimming result is “did not significantly alter swimming, climbing, immobility or diving behavior”. Besides, under setting [3], the Immobility entry was “significantly increased rat immobility” and the Swimming result is “significantly decreased swim behavior”. Besides, under setting [6], the Immobility result is listed as “significantly increased rat immobility” and the Swimming result was “significantly decreased swim behavior”.
Take `O=C1C(=Nc2ccc(Br)cc2)c2ccccc2N1c1ccccc1` [Example 98, 3-[(4-BROMOPHENYL)IMINO]-1-PHENYL-1,3-DIHYDRO-2H-INDOL-2-ONE]: the “overall profile in the Forced Swim Test” value is “produces a profile in the modified Lucki version of the FST resembling that of the clinically established antidepressant fluoxetine”. Besides, under setting [1], the Climbing entry is recorded as “no significant difference in the number of climbing counts”, the Diving result is “not significantly altered”, the Immobility entry was “significantly decreased immobility” and the Swimming entry is “significantly increased swimming”. In addition, under setting [3], the Climbing entry was “no significant difference in the number of climbing counts”, the Diving entry is given as “not significantly altered”, the Immobility result is reported as “significantly decreased immobility” and the Swimming entry is on record as “significantly increased swimming”. For the same compound, under setting [6], the Climbing result was “no significant difference in the number of climbing counts”, the Diving result is “not significantly altered”, the Immobility result is listed as “significantly decreased immobility” and the Swimming result is listed as “significantly increased swimming”.
Turning to `O=C1C(=Nc2cc(Cl)cc(Cl)c2)c2ccccc2N1c1ccccc1` [Example 103, 3-[(3,5-DICHLOROPHENYL)IMINO]-1-PHENYL-1,3-DIHYDRO-2H-INDOL-2-ONE], the “overall profile in the Forced Swim Test” value is recorded as “has antidepressant-like properties”. Under setting [1], the Climbing entry is given as “not significantly altered”, the Diving entry was “not significantly altered”, the Immobility result was “did not significantly alter immobility” and the Swimming entry was “did not significantly alter swimming behavior”. Under setting [3], the Climbing result is “not significantly altered”, the Diving entry is “not significantly altered”, the Immobility result is reported as “did not significantly alter immobility” and the Swimming entry is “did not significantly alter swimming behavior”. Under setting [6], the Climbing result is “not significantly altered”, the Diving result is listed as “not significantly altered”, the Immobility result was “significant decrease in immobility” and the Swimming result is on record as “significantly greater increase in swimming behavior”.
Take `CN(C)c1cc(Nc2ccc(Cl)c(Cl)c2)nc(N2CCN(Cc3ccccc3)CC2)n1` [Example 151]: the “overall profile in the Forced Swim Test” value is “produces behavioral effects in the FST in rats that resemble those of antidepressants”. Also, under setting [2], the Climbing entry is on record as “not significantly altered”, the Diving entry was “not significantly altered”, the Immobility result is “did not significantly alter immobility” and the Swimming result was “significantly increased swimming”. In addition, under setting [1], the Climbing entry is on record as “not significantly altered”, the Diving entry is “not significantly altered”, the Immobility entry is reported as “significantly decreased immobility” and the Swimming result was “significantly increased swimming”. Under setting [3], the Climbing result is listed as “not significantly altered”, the Diving result was “not significantly altered”, the Immobility result is “significantly decreased immobility” and the Swimming entry is given as “significantly increased swimming”.
On to `O=C1/C(=N\c2ccc(Cl)c(Cl)c2)c2ccccc2N1c1ccsc1` [Example 272, (3Z)-3-[(3,4-DICHLOROPHENYL)IMINO]-1-(3-THIENYL)-1,3-DIHYDRO-2H-INDOL-2-ONE], for which the “overall profile in the Forced Swim Test” value is on record as “has the profile of an antidepressant-like”. Besides, under setting [8], the Climbing result is listed as “not significantly altered”, the Diving entry is “not significantly altered”, the Immobility entry is recorded as “significantly decreased immobility” and the Swimming entry was “significant increase in swimming behavior”.
Consider `CNCCC(Oc1ccc(C(F)(F)F)cc1)c1ccccc1` (stereo not shown) [Fluoxetine, fluoxetine, reference compound], for which the Climbing entry runs as follows: under setting [9], “not significantly altered”; (10 mg/kg i.p., single injection 1 h before 5 min test) “did not significantly alter climbing counts”; under setting [12], “not significantly altered”. For the same compound, the Diving entry is reported as “not significantly altered” under setting [9]; “not significantly altered” (10 mg/kg p.o., single administration 1 hr before 5 min test, listed as fluoxet-ine); “not significantly altered” under setting [11]; “not significantly altered” under setting [12]. The Immobility entry was “did not significantly alter immobility” under setting [9]; 38 ± 2.3^a counts and 34 ± 2.3^b counts and 34 ± 3.0^a counts and 34 ± 3.3^b counts and 38 ± 1.3^b counts and 39 ± 1.7^d counts and 38 ± 2.2 counts under setting [10]; “significantly decreased immobility” under setting [11]; “significantly decreased immobility” under setting [12]. Moreover, the Swimming result is, setting by setting: under setting [9], “did not significantly alter swimming”; under setting [10], 19.8 ± 1.8^e counts and 21.8 ± 1.4^c counts and 22.8 ± 2.2^c counts and 21.3 ± 1.8^d,e counts and 21.6 ± 1.1^e counts and 19.2 ± 1.2^e counts and 20.0 ± 1.5^c counts; under setting [11], “significant increase in swimming behavior”; under setting [12], “significant increase in swimming behavior”.
